In US8334295B2, “Pyrimidine derivatives as HIV reverse transcriptase inhibitors” (Korea Research Institute of Chemical Technology, priority 2007, dated 2012):

Columns and labels:
HIV-IIIb = experiment: Antiviral assay in MT-2 cells; type: cell-based; conditions: Human immunodeficiency virus 1, 120 h; HIV-IIIb infected cells, 5 days, CellTiter-Glo; MT-2 or MT-4 cells not stated
Procedure: For the antiviral assay utilizing MT-2 cells, 50 μL of 2× test concentration of 5-fold serially diluted compound in culture medium with 10% FBS was added to each well of a 96-well plate (9 concentrations) in triplicate. MT-2 cells were infected with HIV-IIIb at a multiplicity of infection (m.o.i) of 0.01 for 3 hours. Fifty microliters of infected cell suspension in culture medium with 10% FBS (˜1.5×10^4 cells) was then added to each well containing […] of diluted compound. The plates were then incubated at 37° C. for 5 days. For the antiviral assay utilizing MT-4 cells, 20 μL of 2× test concentration of 5-fold serially diluted compound in culture medium with 10% FBS was added to each well of a 384-well plate (7 concentrations) in triplicate. MT-4 cells were next mixed with HIV-IIIb at an m.o.i. of 0.1 and 20 μl of virus/cell mixture (2000 cells) was immediately added to each well containing […] of diluted compound. The plates were then incubated at 37° C. for 5 days. After 5 days of incubation, 100 μL of CellTiter-Glo™ Reagent (catalog #G7571, Promega Biosciences, Inc., Madison, Wis.) was added to each well containing MT-2 cells and 40 μL to each well containing MT-4 cells. Cell lysis was carried out by incubation at room temperature for 10 min and chemiluminescence was read.

| SMILES | EC50 (HIV-IIIb) [nM] | melting point [°C] |
| --- | --- | --- |
| Cc1cc(C#N)cc(C(=O)c2c(C(C)C)c(=O)[nH]c(=O)n2CC2CC2)c1 [Compound 5] | < 10 |  |
| C/C=C(\Cl)Cn1c(C(=O)c2cc(C)cc(C#N)c2)c(C(C)C)c(=O)[nH]c1=O [Compound 6] | < 10 |  |
| CCOCn1c(C(=O)c2cc(Cl)cc(C#N)c2)c(C(C)C)c(=O)[nH]c1=O [Compound 38] | < 10 | 162 to 164 |
| CCOCn1c(C(=O)c2cc(C)cc(C)c2)c(C(C)C)c(=O)[nH]c1=O [Compound 54] | < 10 |  |
| CCOCn1c(C(=O)c2cc(C)cc(/C=C/C#N)c2)c(C(C)C)c(=O)[nH]c1=O [Compound 56] | < 10 |  |
| CCOCn1c(C(F)c2cc(C)cc(C)c2)c(C(C)C)c(=O)[nH]c1=O (centres unmarked) [Compound 57] | < 10 |  |
| C/C=C/Cn1c(C(=O)c2cc(C)cc(C)c2)c(C(C)C)c(=O)[nH]c1=O [Compound 60] | < 10 |  |
| Cc1cc(C=CC#N)cc(C(=O)c2c(C(C)C)c(=O)[nH]c(=O)n2CC2CC2)c1 [Compound 72, 3-[3-(3-Cyclopropylmethyl-5-isopropyl-2,6-dioxo-1,2,3,6-tetrahydro-pyrimidine-4-carbonyl)-5-methyl-phenyl]-acrylonitrile] | < 10 | 225 to 226 |
| CCn1c(C(=O)c2cc(C)cc(C=CC#N)c2)c(C(C)C)c(=O)[nH]c1=O [Compound 73, 3-[3-(3-Ethyl-5-isopropyl-2,6-dioxo-1,2,3,6-tetrahydro-pyrimidine-4-carbonyl)-5-methyl-phenyl]-acrylonitrile] | < 10 | 174 to 176 |
| CCn1c(C(=O)c2cc(C)cc(CCC#N)c2)c(C(C)C)c(=O)[nH]c1=O [Compound 75, 3-[3-(3-Ethyl-5-isopropyl-2,6-dioxo-1,2,3,6-tetrahydro-pyrimidine-4-carbonyl)-5-methyl-phenyl]-propionitrile] |  | 173 to 174 |
| Cc1cc(C#N)cc(C(=O)c2c(C(C)C)c(=O)[nH]c(=O)n2C(C)C)c1 [Compound 77, 3-(3,5-Diisopropyl-2,6-dioxo-1,2,3,6-tetrahydro-pyrimidine-4-carbonyl)-5-methyl-benzonitrile] |  | 278 to 280 |
| Cc1cc(C#N)cc(C(=O)c2c(C(C)C)c(=O)[nH]c(=O)n2CC2(CC(N)=O)CC2)c1 [Compound 85, 2-{1-[6-(3-Cyano-5-methyl-benzoyl)-5-isopropyl-2,4-dioxo-3,4-dihydro-2H-pyrimidin-1-ylmethyl]-cyclopropyl}-acetamide] |  | 283 to 285 |
| CCn1c(C(C#N)c2cc(C)cc(C#N)c2)c(C(C)C)c(=O)[nH]c1=O (centres unmarked) [Compound 85, 3-[Cyano-(3-ethyl-5-isopropyl-2,6-dioxo-1,2,3,6-tetrahydro-pyrimidin-4-yl)-methyl]-5-methyl-benzonitrile] |  | 260 to 261 |
| Cc1cc(C#N)cc(C(=O)c2c(C(C)C)c(=O)[nH]c(=O)n2CCOC(N)=O)c1 [Compound 86, Carbamic acid 2-[6-(3-cyano-5-methyl-benzoyl)-5-isopropyl-2,4-dioxo-3,4-dihydro-2H-pyrimidin-1-yl]-ethyl ester] | < 10 |  |
| CC=CCn1c(Oc2cc(C)cc(C)c2)c(C(C)C)c(=O)[nH]c1=O [Compound 115, 1-But-2-enyl-6-(3,5-dimethyl-phenoxy)-5-isopropyl-1H-pyrimidine-2,4-dione] | < 10 |  |

Results, then the compound that gave them:

| EC50 (HIV-IIIb) [nM] | melting point [°C] | SMILES |
| --- | --- | --- |
| < 10 |  | CCn1c(C(=O)c2cc(C)cc(C#N)c2)c(C(C)C)c(=O)[nH]c1=O [Compound 3, 3-(3-ethyl-5-isopropyl-2,6-dioxo-1,2,3,6-tetrahydro-pyrimidine-4-carbonyl)-5-methyl-benzonitrile] |
| < 10 |  | CCOCn1c(C(=O)c2cc(C)cc(C#N)c2)c(C(C)C)c(=O)[nH]c1=O [Compound 9] |
| < 10 | 166 to 167 | Cc1cc(C#N)cc(C(=O)c2c(C(C)C)c(=O)[nH]c(=O)n2CCCO)c1 [Compound 25] |
| < 10 | 202 to 203 | CCCn1c(C(=O)c2cc(C)cc(C#N)c2)c(C(C)C)c(=O)[nH]c1=O [Compound 46] |
| < 10 |  | CCCCn1c(C(=O)c2cc(C)cc(C#N)c2)c(C(C)C)c(=O)[nH]c1=O [Compound 47, 3-(3-Butyl-5-isopropyl-2,6-dioxo-1,2,3,6-tetrahydro-pyrimidine-4-carbonyl)-5-methyl-benzonitrile] |
| < 10 | 190 to 191 | CCCCn1c(C(=O)c2cc(C)cc(C#N)c2)c(CC)c(=O)[nH]c1=O [Compound 70] |
| < 10 | 164 to 165 | CCCCn1c(C(=O)c2cc(C)cc(C=CC#N)c2)c(C(C)C)c(=O)[nH]c1=O [Compound 74, 3-[3-(3-Butyl-5-isopropyl-2,6-dioxo-1,2,3,6-tetrahydro-pyrimidine-4-carbonyl)-5-methyl-phenyl]-acrylonitrile] |
| < 10 | 172 to 173 | CCCCn1c(C(=O)c2cc(C)cc(CCC#N)c2)c(C(C)C)c(=O)[nH]c1=O [Compound 76, 3-[3-(3-Butyl-5-isopropyl-2,6-dioxo-1,2,3,6-tetrahydro-pyrimidine-4-carbonyl)-5-methyl-phenyl]-propionitrile] |
|  | 200 to 201 | Cc1cc(C#N)cc(C(=O)c2c(C(C)C)c(=O)[nH]c(=O)n2CC(C)C)c1 [Compound 78, 3-(3-Isobutyl-5-isopropyl-2,6-dioxo-1,2,3,6-tetrahydro-pyrimidine-4-carbonyl)-5-methyl-benzonitrile] |
|  | 133 to 134 | C=CCCn1c(C(=O)c2cc(C)cc(C#N)c2)c(C(C)C)c(=O)[nH]c1=O [Compound 79, 3-(3-But-3-enyl-5-isopropyl-2,6-dioxo-1,2,3,6-tetrahydro-pyrimidine-4-carbonyl)-5-methyl-benzonitrile] |
| < 10 | 177 to 178 | CC=CCn1c(C(=O)c2cc(C)cc(C#N)c2)c(C(C)C)c(=O)[nH]c1=O [Compound 80, 3-(3-But-2-enyl-5-isopropyl-2,6-dioxo-1,2,3,6-tetrahydro-pyrimidine-4-carbonyl)-5-methyl-benzonitrile] |
